The NIST ThermoML archive (doi:10.1021/je0302304)

Test: xn = mol fraction of the nth substance listed
Settings: 101.32 kPa, Liquid

COCCOCCOCCOCCOC [2,5,8,11,14-pentaoxapentadecane] + CCO
mass density [kg/m3]
Settings | 288.15 K | 298.15 K | 308.15 K | 318.15 K
x1 = 0.0045 | 797.9 | 789.4 | 780.7 | 771.9
x1 = 0.0085 | 801.4 | 792.9 | 784.2 | 775.3
x1 = 0.0125 | 804.8 | 796.3 | 787.6 | 778.7
x1 = 0.0165 | 808.2 | 799.6 | 790.9 | 782
x1 = 0.0205 | 811.5 | 802.9 | 794.2 | 785.3
x1 = 0.0305 | 819.5 | 810.8 | 802 | 793.1
x1 = 0.05 | 833.6 | 824.9 | 816.1 | 807.1
x1 = 0.1 | 864.1 | 855.1 | 846.2 | 837.1
x1 = 0.15 | 888 | 878.9 | 869.9 | 860.7
x1 = 0.2 | 907.3 | 898.1 | 889.1 | 879.9
x1 = 0.25 | 923.3 | 914.1 | 905 | 895.7
x1 = 0.3 | 936.6 | 927.4 | 918.2 | 908.9
x1 = 0.35 | 947.9 | 938.6 | 929.5 | 920.2
x1 = 0.4 | 957.6 | 948.3 | 939.2 | 929.8
x1 = 0.45 | 966 | 956.7 | 947.5 | 938.2
x1 = 0.5 | 973.4 | 964.1 | 954.9 | 945.5
x1 = 0.55 | 979.9 | 970.6 | 961.3 | 952
x1 = 0.6 | 985.7 | 976.3 | 967.1 | 957.8
x1 = 0.6499 | 990.9 | 981.5 | 972.3 | 963
x1 = 0.7 | 995.6 | 986.2 | 977 | 967.6
x1 = 0.7498 | 999.8 | 990.4 | 981.2 | 971.9
x1 = 0.7999 | 1003.6 | 994.2 | 985 | 975.6
x1 = 0.8499 | 1007 | 997.7 | 988.4 | 979.1
x1 = 0.8997 | 1010.2 | 1000.9 | 991.6 | 982.4
x1 = 0.9496 | 1013.2 | 1003.8 | 994.6 | 985.3
x1 = 1 | 1016 | 1006.6 | 997.4 | 988.1

COCCOCCOCCOC [2,5,8,11-tetraoxadodecane] + CCO
mass density [kg/m3]
Settings | 288.15 K | 298.15 K | 308.15 K | 318.15 K
x1 = 0.0045 | 796.7 | 788.2 | 779.5 | 770.6
x1 = 0.0085 | 799.3 | 790.7 | 782 | 773.1
x1 = 0.0125 | 801.7 | 793.2 | 784.4 | 775.5
x1 = 0.0165 | 804.2 | 795.6 | 786.8 | 778
x1 = 0.0205 | 806.6 | 798 | 789.2 | 780.3
x1 = 0.0305 | 812.4 | 803.7 | 794.9 | 786
x1 = 0.05 | 823 | 814.2 | 805.4 | 796.4
x1 = 0.1 | 846.7 | 837.7 | 828.8 | 819.7
x1 = 0.15 | 866.4 | 857.3 | 848.3 | 839
x1 = 0.2 | 882.9 | 873.6 | 864.5 | 855.2
x1 = 0.25 | 896.9 | 887.7 | 878.6 | 869.2
x1 = 0.3 | 909.2 | 900 | 890.7 | 881.4
x1 = 0.35 | 919.8 | 910.5 | 901.3 | 891.9
x1 = 0.4 | 929.2 | 919.8 | 910.5 | 901.1
x1 = 0.4499 | 937.4 | 928 | 918.6 | 909.2
x1 = 0.5 | 944.8 | 935.3 | 925.9 | 916.4
x1 = 0.55 | 951.4 | 941.9 | 932.4 | 922.9
x1 = 0.6 | 957.3 | 947.7 | 938.3 | 928.8
x1 = 0.65 | 962.7 | 953.1 | 943.7 | 934.2
x1 = 0.7 | 967.5 | 958 | 948.6 | 939
x1 = 0.75 | 972 | 962.4 | 953 | 943.5
x1 = 0.7999 | 976.1 | 966.5 | 957.1 | 947.5
x1 = 0.8499 | 979.9 | 970.3 | 960.8 | 951.3
x1 = 0.8998 | 983.4 | 973.8 | 964.3 | 954.8
x1 = 0.9498 | 986.7 | 977.1 | 967.6 | 958.1
x1 = 1 | 989.7 | 980.1 | 970.7 | 961.1
